Columns and labels:
[1] = system: panel of clinical isolates expressing class A, B and D carbapenemases; test: Carbapenem potentiation MIC, whole panel; assay type: cell-based; settings: all strains of the panel; compound fixed 5 μg/ml
From the text: The results are present in Table 6.
The results are present in Table 7.

[2] = system: ECM6711 (pUCP24-VIM-1); test: microbe, parasite or virus in culture; assay type: cell-based, E. coli; settings: VIM-1 producing strain; compound fixed 4 μg/ml or 8 μg/ml
[3] = target: T1, KPC-2 (Klebsiella pneumoniae, UniProt Q9F663); test: Inhibition of purified beta-lactamase, nitrocefin cleavage; assay type: biochemical; settings: read-out: Ki (KPC-2, NCF)
Description: Purified enzymes were mixed with various concentrations of inhibitors in reaction buffer and incubated for 10 min at room temperature. Nitrocefin was added and substrate cleavage profiles were recorded at 490 nm every 10 sec for 10 min.

[4] = target: T1, KPC-2; test: Inhibition of purified class A carbapenemase, biapenem cleavage; assay type: biochemical; settings: substrate biapenem 100 μM
[5] = system: ECM6703 (pUCP24-NDM-1); test: microbe, parasite or virus in culture; assay type: cell-based, E. coli; settings: NDM-1 producing strain; compound fixed 4 μg/ml or 8 μg/ml

T1 sequence (Q9F663 25-293, looked up, species assumed): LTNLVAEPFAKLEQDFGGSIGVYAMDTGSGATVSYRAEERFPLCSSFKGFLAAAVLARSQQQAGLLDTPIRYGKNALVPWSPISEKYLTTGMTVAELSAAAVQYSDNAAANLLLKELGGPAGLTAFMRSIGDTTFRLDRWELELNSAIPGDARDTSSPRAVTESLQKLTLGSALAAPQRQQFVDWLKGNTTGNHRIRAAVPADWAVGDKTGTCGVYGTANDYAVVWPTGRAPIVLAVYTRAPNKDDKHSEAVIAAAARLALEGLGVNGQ

O=C(O)c1cccc2c1OB(O)[C@@H](Sc1nncs1)C2 [Compound 1, (R)-3-(1,3,4-thiadiazol-2-ylthio)-2-hydroxy-3,4-dihydro-2H-benzo[e][1,2]oxaborinine-8-carboxylic acid]
carbapenem MIC in the presence of compound [1]: significantly reduced | imipenem MIC in the presence of compound [2]: decreased to the level of the strain containing empty vector | Ki [3]: 100 to 1000 nM | Ki [4]: 10 to 100 nM | imipenem MIC in the presence of compound [5]: decreased to the level of the strain containing empty vector

— US9132140B2, “Boronic acid derivatives and therapeutic uses thereof” (Rempex Pharmaceuticals, Inc., priority 2013, dated 2015)
